# Data as given in patent US8795734B2, “Hydrophobic nanotubes and nanoparticles as transporters for the delivery of drugs into cells” (The Board of Trustees of the Leland Stanford Junior …, priority 2005, dated 2014).
# Experiments:
# HL60 and HeLa cells = test: Internalization of SWNT-protein, SWNT-DNA and SWNT-SS-DNA conjugates (fluorescence confocal, flow cytometry); type: cell-based, human
# Method: Two cell lines, human promyelomonocytic HL60 cells and cervical cancer HeLa cells were used in the current work. HL60 were cultured in RPMI medium supplemented with 10% fetal bovine serum (FBS), while HeLa cells were cultured in DMEM medium supplemented with 10% FBS and 1% penicillin-streptomycin. The cells were suspended in phosphate buffered saline (PBS), mixed with a SWNT conjugate and incubated for 1-3 h at 37° C., except for the low temperature incubations. The concentration of SWNTs in the incubation solution was typically ˜2.5 mg/L as measured by UV-vis-NIR absorption spectrum, and the cell density was ˜2×10^5 cells/well. Adherent HeLa cells were either trypsinized to detach from the Petri dishes to form a suspension or were seeded overnight in chambered cover-slides.
# Both the protein and DNA molecules were labeled with a fluorescent tag (by either Cy3 or Alexa Fluor 488) to allow for confocal fluorescence imaging and flow cytometry analysis.
# We carried out incubations of protein-SWNT and DNA-SWNT with HL60 and HeLa cells at 4° C. and with cells pretreated with NaN3.
# CXCR4 = test: Silencing by PL-PEG-s-s-siRNA conjugates of different nanoparticles; type: cell-based
# From the text: Conjugates as prepared according to Examples 24-27 were made with nanoparticles other than SWNTs. It was shown that MWNTs, carbon black nanoparticles can all be used to make noncovalent PL-PEG-s-s-siRNA conjugates. […] Referring to FIG. 10A, the silencing effect for these conjugates is shown with reference to SWNT conjugates. The experiments were done with the following:
# Referring now to FIG. 10B, CXCR4 silencing is shown for different nanoparticles. Polystyrene spheres (PS, 20 nm and 50 nm) were also used to make noncovalent PL-PEG-s-s-siRNA conjugates. […] The data in FIG. 10B below compares the RNAi effects of PS delivery vs. nanotube delivery.
# HL60 cells = test: Cellular uptake of SWNT conjugates by confocal microscopy and flow cytometry; type: cell-based, human; details: protein alone, versus untreated cells
# Method: HL60 and Jurkat cells were both grown in RPMI-1640 cell culture medium (Invitrogen) supplemented with 10% fetal bovine serum (FBS). Prior to incubation, the cells were collected by centrifugation and resuspended in RPMI medium at a cell density of 3μ 10^6 cells/mL. Incubation of cells in a nanotube solution was done by mixing 100 μL of the cell suspension with 100 μL of a SWNT solution (2, 3 or 4) at 37° C. unless otherwise stated. The concentration of SWNT in the incubation solution was ˜0.05 mg/mL unless otherwise stated, and the incubation duration was always 1 h in 5% CO2 atmosphere except for time dependent incubation experiments. After incubation, the cells were washed and collected by centrifugation twice, and resuspended in RPMI medium.
# FM4-64 (Molecular Probes Inc.) is a classical marker used for staining membrane and endosomes. The cell incubations were carried out under similar conditions as discussed in the previous section, except that FM 4-64 (2% v/v) was added to the incubation mixture. […]
# Also, cells were analyzed by a Becton-Dickinson FACScan instrument after incubation in various nanotube solutions. […] We carried out dual detection of red and green fluorescence with the cells. The data presented here represent the mean green fluorescence obtained with a population of 10,000 live cells.
# HL-60 cells [1] = test: Cell proliferation CellTiter 96 MTS assay; type: cell-based, human; details: 2 h incubation, monitored up to 5 days versus untreated cells
# Method: After incubation with the SWNT-streptavidin conjugate (unlabeled), HL-60 cells were washed and resuspended in RPMI media. The cells were plated in a 6-well plate at a density of ˜8×10^3 cells/well. At 24 h interval, Celltiter96 reagent (Promega) was added to one of the wells and allowed to incubate for ˜2-3 h at 37° C. and 5% CO2. The CellTiter 96 assay uses the tetrazolium compound (3-(4,5-dimethylthiazol-2-yl)-5-(3-carboxymethoxyphenyl)-2-(4-sulfophenyl)-2H-tetrazolium, inner salt; MTS) and the electron-coupling reagent, phenazine methosulfate (PMS). […] The measurement of the absorbance of the formazan can be carried out at 490 nm. […]
# We used the CellTiter 96 MTS assay (Promega) to examine the proliferation of HL60 cells following exposure to SWNT-protein conjugates. […] The absorbance of the formazan salt can be measured at 490 nm and correlates to the number of cells in the suspension. The absorbance from the cells incubated with the SWNT-protein conjugates was measured over a period of 5 days in parallel with control cells never exposed to any nanotubes. The absorbance detected by a UV-VIS spectrophotometer was very similar for cells with and without exposure to SWNTs over the 5-day monitoring period.
# Cells were incubated with SWNT-SA conjugate (without fluorescent label) for 2 hrs. […] The absorbance is then taken at 490 nm.
# HL-60 cells [2] = test: Cell viability study with PEG-phospholipid functionalized SWNTs (propidium iodide); type: cell-based
# Method: HL-60 cells were incubated and then washed to remove excess nanotubes, as described above. The cells were then placed into the incubator for an additional 24 h with the RPMI medium. The cells were then examined through a confocal microscope, after being stained with 2% (v/v) of propidium iodide (Biochemika), a common stain for dead cells. Control experiments were carried out for cells without exposure to nanotubes.
# The confocal images (not shown) of HL-60 cells were obtained (a) untreated (b) treated with FTIC-PEG-PE modified CNTs for 90 min at 37° C. Cells were washed and allowed to incubate for an additional 24 h prior to confocal analysis. Propidium iodide is added to the suspension in order to stain for dead cells (red cells in the images).
# [3] = system: endosomal compartments of cells; test: Endosome release of protein-SWNT conjugates by chloroquine (confocal); type: cell-based
# From the text: A.; Murthy, N.; Press, O. W.; Tirrell, D. A.; Hoffman, A. S.; Stayton, P. S. Bioconj. Chem. 1999, 10, 401; Cho, Y. W.; Kim, J. D.; Park, K. J. Pharm. Pharmacol. 2003, 55, 721). These methods make use of the pH difference across the endosome membrane and the pH response of the polymers or amines. For SWNT transporters, similar complexation schemes can be developed to afford nanotube transporters containing an endosome-releasing agent. While such an effort warrants detailed investigations separately from the current work, we describe here the release of internalized protein-SWNT conjugates from the endosomal compartments by adding chloroquine to cell medium during incubation of cells in protein-SWNT conjugates. […] The resulting osmotic pressure can lead to swelling of the endosomal compartments and eventual rupture (Ogris, M.; Steinlein, P.; Kursa, M.; Mechtler, K.; Kircheis, R.; Wagner, E. Gene Ther. 1998, 5, 1425).
# In experiments carried out with and without chloroquine, we noticed a difference in the distribution of the detected fluorescence inside the cells. […] FIG. 2 (a) Cells are incubated with (a) SWNT-CytC conjugate and (b) SWNT-CytC+100 μM of chloroquine at 37° C. and 5% CO2 Confocal images are taken immediately after incubation and washing. […]
# NIH-3T3 cells = test: Apoptosis assay by Annexin V-FITC staining; type: cell-based
# From the text: We use Annexin V labeled with fluorescein isothiocyanate (Molecular Probes) as an early stage apoptosis marker. One of the earliest indications of apoptosis is the translocation of the membrane phospholipid phosphatidylserine (PS) from the inner to the outer leaflet of the plasma membrane. Once exposed to the extracellular environment, binding sites on PS become available for Annexin V, a ˜35 kDa Ca^2+-dependent, phospholipid binding protein with a high affinity for PS (Pigault, C.; Follenius-Wund, A.; Schmutz, M.; Freyssinet, J.; Brisson, A. J. Mol. Biol. 1994, 236, 199) (also see Sigma Technical Bulletin number MB-390). In this study, NIH 3T3 cells were plated and incubated with SWNT-cytochrome c as described above. […] The cells were co-stained with propidium iodide and immediately analyzed by flow cell cytometry. Apoptosis data in FIG. 3 were for cells free of PI-staining recorded ˜4-5 h after exposure to chloroquine with or without (for control) cyt c-SWNT conjugates.
# HeLa (human cervix carcinoma) and NIH-3T3 cell lines, shown previously to undergo cyt-c-induced apoptosis were investigated in this study for intracellular transporting of cyt-c with SWNTs and for apoptosis assay (Cai). Unlike the proteins used for other uptake experiments, cyt-c used for binding to SWNTs and transported inside cells for apoptosis assay were free of any fluorescence label. […]
substance,measurement,setting,value
SWNT-protein: Fluorescently labeled BSA non-specifically bound to oxidized Hipco SWNTs,cellular internalization,HL60 and HeLa cells; 1-3 h at 37 °C,cellular internalization
same,level of fluorescence in the cells,HL60 and HeLa cells; 4 °C incubation and NaN3 pretreatment (ATP depletion),considerably lower
Carbon black,cell entry and siRNA delivery,CXCR4,able to enter cells and deliver siRNA into cells
same,silencing effect compared to SWNT conjugates (FIG. 10A),CXCR4; ~20 nM nanoparticle,greater silencing efficiency at day 3
"SA: Fluoresceinated streptavidin protein alone, MW ~60 kD",fluorescence of cells by flow cytometry,HL60 cells,only slightly greater than the background fluorescence of untreated cells
SWNT-SA conjugate: Streptavidin without fluorescent label non-specifically bound to oxidized SWNTs,cell proliferation (absorbance at 490 nm),HL-60 cells [1],does not show any deviation from the proliferation of untreated cells
Tween-20,effect of surfactant exposure on cells,HL-60 cells [2],Cells tended to die
cyt-c-SWNT: Cytochrome c (12 kD) non-covalently bound to oxidized SWNTs,distribution of fluorescence inside the cells,[3]; 100 μM chloroquine,diffuse and uniform
same,distribution of fluorescence inside the cells,[3]; absence of chloroquine,discrete punctate fluorescence spots
same,percentage of apoptosed cells versus cyt-c alone,NIH-3T3 cells; Annexin V-FITC staining,significantly higher percentages of apoptosed cells
same,degree of apoptosis with versus without chloroquine,NIH-3T3 cells; in the presence of chloroquine,Higher degrees of apoptosis
